According to patent US8143226B2, “Tyrosine kinase receptor antagonists and methods of treatment for breast cancer” (The Regents of the University of California, priority 2005, dated 2012):

How the values were obtained:
Assay type in all cases: cell-based
[1] = target: IGF-1R (Homo sapiens, UniProt P08069); assay: IGF-1R phosphorylation ELISA in MCF-7/HER2-18 cells; parameters: endogenous in cells; host or cells: MCF-7/HER2-18; details: 3 nM IGF-I 10 min
Protocol: RTK inhibitors were dissolved in DMSO and diluted with culture medium before being added to cells for 1.5 hour at 37° C. The final concentration of DMSO during the incubation was 0.3% . For some studies, cells were also stimulated with 3 nM IGF-I for 10 minutes at 37° C. Reactions were terminated by rapidly aspirating medium and washing cells three times with ice cold PBS. Cells were harvested and solubilized in 50 mM HEPES, 150 mM NaCl, 1% Triton X-100, 1 mM PMSF, and 2 mM vanadate for 1 hour at 4° C. Protein concentrations were determined by BCA assay (Pierce, Rockford, Ill.). […] Briefly, 10 μg lysate protein were added to triplicate wells in a 96-well plate coated with monoclonal antibody to the IGF-IR (IR3; 2 μg/ml), and incubated for 18 hours at 4° C. Plates were washed five times and then HRP-conjugated anti-phosphotyrosine antibody (0.3 μg/ml), diluted in Solution B (50 mM HEPES, pH 7.6, 150 mM NaCl, 0.05% Tween-20, 1 mM PMSF, 2 mM vanadate and 1 mg/ml bacitracin), was added for two hours at 22° C. Plates were washed five times prior to color development with TMB substrate, which was terminated with 1.0 M H3PO4. Values for receptor phosphorylation were determined by measuring absorbance at 450 nm.

[2] = system: MCF-7/neo cells; assay: Tamoxifen and/or NDGA growth inhibition of MCF-7/neo cells (CyQuant); details: Homo sapiens, MCF7, 144 h; MCF-7/neo cells, tamoxifen 100 nM, 6 days
Protocol: (§1) Cells were estrogen-starved for three days in DMEM containing 10% charcoal-[…]-stripped FCS (CDSS) prior to their plating in 96 well plates. Cells were plated in 100 μl of the same media, allowed to adhere overnight, and then were switched to DMEM+10% CDSS supplemented with 100 pM estrogen. […] The media and inhibitors were refreshed on day 3, the cultures were harvested on day 6, and a CyQuant assay was performed as described above.

[3] = system: MCF-7/HER2-18 cells; assay: Tamoxifen and/or NDGA growth inhibition of MCF-7/HER2-18 cells (CyQuant); details: Homo sapiens, 144 h; MCF-7/HER2-18 cells, tamoxifen 100 nM, 6 days
Protocol: as §1

IGF-1R, sequence (P08069 31-1367): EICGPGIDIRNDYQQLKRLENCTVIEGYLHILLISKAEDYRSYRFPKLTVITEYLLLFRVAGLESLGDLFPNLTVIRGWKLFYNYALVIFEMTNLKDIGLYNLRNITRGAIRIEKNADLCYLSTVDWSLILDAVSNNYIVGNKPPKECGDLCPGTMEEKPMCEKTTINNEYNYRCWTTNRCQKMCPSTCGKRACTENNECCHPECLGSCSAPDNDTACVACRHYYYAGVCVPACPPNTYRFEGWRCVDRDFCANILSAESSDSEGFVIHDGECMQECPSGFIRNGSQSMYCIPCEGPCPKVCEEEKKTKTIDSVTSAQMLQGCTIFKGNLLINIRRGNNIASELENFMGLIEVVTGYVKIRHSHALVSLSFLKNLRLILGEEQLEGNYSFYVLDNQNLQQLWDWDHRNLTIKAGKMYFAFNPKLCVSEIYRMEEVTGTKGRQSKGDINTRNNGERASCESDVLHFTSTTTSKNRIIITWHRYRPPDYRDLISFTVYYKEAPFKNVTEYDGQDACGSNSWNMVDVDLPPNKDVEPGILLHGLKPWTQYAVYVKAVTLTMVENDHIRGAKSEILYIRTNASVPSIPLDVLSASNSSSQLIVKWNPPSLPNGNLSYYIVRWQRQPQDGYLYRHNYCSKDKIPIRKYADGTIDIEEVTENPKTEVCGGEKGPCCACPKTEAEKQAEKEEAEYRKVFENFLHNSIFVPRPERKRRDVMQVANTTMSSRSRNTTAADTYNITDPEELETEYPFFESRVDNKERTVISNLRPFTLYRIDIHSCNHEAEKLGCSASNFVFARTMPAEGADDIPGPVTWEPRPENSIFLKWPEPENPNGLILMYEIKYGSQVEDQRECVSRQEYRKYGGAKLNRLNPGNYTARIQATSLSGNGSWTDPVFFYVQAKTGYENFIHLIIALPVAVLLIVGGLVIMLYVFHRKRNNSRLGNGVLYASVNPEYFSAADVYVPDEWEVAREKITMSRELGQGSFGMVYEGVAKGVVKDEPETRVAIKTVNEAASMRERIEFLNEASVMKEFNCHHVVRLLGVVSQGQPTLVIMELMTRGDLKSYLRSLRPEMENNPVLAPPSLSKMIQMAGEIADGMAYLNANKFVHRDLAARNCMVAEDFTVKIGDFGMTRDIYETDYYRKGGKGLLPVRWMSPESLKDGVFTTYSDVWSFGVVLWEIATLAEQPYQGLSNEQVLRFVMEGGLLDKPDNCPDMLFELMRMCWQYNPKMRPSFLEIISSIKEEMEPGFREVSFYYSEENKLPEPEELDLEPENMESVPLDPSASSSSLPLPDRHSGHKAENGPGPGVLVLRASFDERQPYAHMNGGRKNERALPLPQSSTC

IGF-1 stimulated phosphorylation of the IGF-1R [1] | SMILES | inhibition at 0.1 µM [2] [%] | inhibition at 0.1 µM [3] [%]
only a weak inhibitory effect | COc1cc2ncnc(Nc3ccc(F)c(Cl)c3)c2cc1OCCCN1CCOCC1 [gefitinib, Gefitinib, reference compound] | – | –
– | CC/C(=C(\c1ccccc1)c1ccc(OCCN(C)C)cc1)c1ccccc1 [tamoxifen, reference compound] | > 50 | 24
